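Five concentrations, 48 hours, 96-well plates. TGI is the concentration that stops growth completely.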
Key:
Assay in all cases: NCI tumour cell line growth inhibition, 48 h
A549 NSCLC = tested on: A549 NSCLC
NCI-H522 lung = tested on: NCI-H522 lung
PC-3 prostate = tested on: PC-3 prostate
SNB-75 CNS = tested on: SNB-75 CNS
A498 renal = tested on: A498 renal
SF-268 CNS = tested on: SF-268 CNS
NCI-H460 lung = tested on: NCI-H460 lung
OVCAR-5 ovarian = tested on: OVCAR-5 ovarian
CCRF-CEM leukemia = tested on: CCRF-CEM leukemia
NCI-H226 lung = tested on: NCI-H226 lung
SN12C renal = tested on: SN12C renal
MOLT-4 leukemia = tested on: MOLT-4 leukemia
NCI-H23 lung = tested on: NCI-H23 lung
SNB-19 CNS = tested on: SNB-19 CNS
MDA-MB-435 = tested on: MDA-MB-435
786-0 renal = tested on: 786-0 renal
IGROV1 ovarian = tested on: IGROV1 ovarian
SK-OV-3 ovarian = tested on: SK-OV-3 ovarian
T-47D breast = tested on: T-47D breast

Row | SMILES | TGI (A549 NSCLC) [µM] | TGI (NCI-H522 lung) [µM] | TGI (PC-3 prostate) [µM] | TGI (SNB-75 CNS) [µM] | TGI (A498 renal) [µM] | TGI (SF-268 CNS) [µM] | TGI (NCI-H460 lung) [µM] | TGI (OVCAR-5 ovarian) [µM] | TGI (CCRF-CEM leukemia) [µM] | TGI (NCI-H226 lung) [µM] | TGI (SN12C renal) [µM] | TGI (MOLT-4 leukemia) [µM] | TGI (NCI-H23 lung) [µM] | TGI (SNB-19 CNS) [µM] | TGI (MDA-MB-435) [µM] | TGI (786-0 renal) [µM] | TGI (IGROV1 ovarian) [µM] | TGI (SK-OV-3 ovarian) [µM] | TGI (T-47D breast) [µM]
1 | CCN(CC)CCn1nc(N)c2nc3ccccc3nc21 | > 100 | > 100 | > 100 | > 100 | > 100 | > 100 | > 100 | > 100 | > 100 | > 100 | > 100 | > 100 | > 100 | > 100 | > 100 | > 100 | > 100 | > 100 | 
2 | COc1ccc(C[C@@H](CO)NC2=C(C#N)CCC2)cc1 | > 100 |  | > 100 | 95.1 | 97.9 | > 100 | > 100 | > 100 | > 100 | > 100 | > 100 | > 100 | > 100 | > 100 | > 100 | > 100 |  | > 100 | 
3 | CC(C)(C)OC(=O)CN1C(=O)CC1CC(=O)c1ccccc1 (stereo not drawn) | > 100 | 33.7 | 30.9 |  | 64 | 37.7 | 77.1 | 36.8 |  | 43.5 | 51.1 | 25.3 | 36.5 | 41.9 | 41.2 | 32.9 | 32.2 |  | 
4 | CCOC(=O)N(NC(=O)NC(C)C)c1ccccc1 | > 100 |  | > 100 | > 100 | > 100 |  | > 100 | > 100 | > 100 | > 100 | > 100 | > 100 | > 100 | > 100 |  | > 100 | > 100 | > 100 | 
5 | COc1ccc(/C=C2\CCC(C)C3C2=NN(c2ccccc2)C3c2ccc(OC)c(OC)c2)cc1OC (stereo not drawn) |  |  | 51.6 | 6.37 | 12.3 | 30.4 |  | 24 | 10.2 | 12.9 | 17.6 | 11 | 16.9 | 36.2 | > 100 | 14.5 | 8.23 | 20.2 | 9.08
6 | Oc1c2cc(Cl)cc1COCc1cc(Cl)cc(c1O)COCc1cc(Cl)cc(c1O)COC2 | > 100 |  | > 100 | 63.4 | > 100 |  | > 100 | > 100 | 59.5 | > 100 |  |  | 98.6 | > 100 | > 100 | 37.7 | > 100 | > 100 | > 100
7 | O=C1N[C@H]2c3c(Cl)sc(Cl)c3[C@@H](O)[C@H]2O1 | > 100 |  | > 100 | > 100 | > 100 | > 100 | > 100 | > 100 | > 100 |  | > 100 | > 100 |  | > 100 | > 100 | > 100 | > 100 | > 100 | > 100
8 | O=C(Cn1c2c(c3ccccc31)CCCC2)N1CCCC1 | > 100 |  | > 100 |  | > 100 |  | > 100 | > 100 |  |  | > 100 |  | > 100 | > 100 | > 100 | > 100 | > 100 | > 100 | 
9 | CCOCc1c(C)cc(C)c(C2C(C(=O)c3ccccc3)N3c4ccccc4C=CC3C2(C#N)C(=O)OCC)c1C (stereo not drawn) |  |  | > 100 |  | > 100 | > 100 | > 100 | > 100 | > 100 |  | > 100 | > 100 | > 100 | > 100 | > 100 | > 100 | 46.5 |  | 
10 | O=P1(O)c2ccccc2CCc2ccccc21 | > 100 | > 100 | > 100 | > 100 |  | > 100 |  |  | > 100 | > 100 | > 100 | > 100 | > 100 | > 100 | > 100 | > 100 | > 100 | > 100 | 
11 | CC1OC(OC2C(OC(=O)[C@]34CCC(C)(C)CC3C3=CCC5[C@@]6(C)C[C@H](O)[C@H](OC7OC(CO)C(O)C(O)C7N)[C@@](C)(C(=O)O)C6CC[C@@]5(C)C3(C)CC4)OCC(O)C2O)C(O)C(O)C1OC1OCC(O)C(O)C1O (stereo partly drawn) | > 100 | > 100 |  | > 100 | > 100 | > 100 | > 100 | > 100 | > 100 | > 100 | > 100 | > 100 | > 100 | > 100 |  | > 100 | > 100 | > 100 | 
12 | COc1ccc2c(c1)C(=O)Cc1ccccc1CC2 | > 100 | > 100 |  | > 100 | > 100 | > 100 | > 100 | > 100 | > 100 | > 100 | > 100 | > 100 | > 100 | > 100 |  | > 100 | > 100 | > 100 | 
13 | CC1(C)C2CCC(CN)(C2)C1N (stereo not drawn) | > 100 |  | > 100 | > 100 | > 100 | > 100 | > 100 | > 100 | > 100 | > 100 | > 100 | > 100 | > 100 | > 100 | > 100 | > 100 | > 100 | > 100 | > 100
14 | O=C1c2ccccc2C(=O)c2c1cc(S(=O)(=O)O)c(O)c2O | > 100 | > 100 |  | > 100 | > 100 | > 100 | > 100 | > 100 | > 100 | > 100 | > 100 | > 100 | > 100 |  |  | > 100 | > 100 | > 100 | 
15 | COC(=O)C1=C(O)C(C(=O)OC)[C@]2(O)[C@H](C(=O)OC)[C@H]1C[C@@H](c1ccc(OC)c(OC)c1)[C@H]2C(=O)OC (stereo partly drawn) | 54.4 |  | > 100 | 46 | 54.7 |  | 42.1 | > 100 | > 100 | 29 | > 100 | 69.8 | > 100 | 73.3 | 44.2 | > 100 | > 100 | 68.2 | > 100
16 | O=C(O)CCCn1nnc2c(=O)[nH][nH]c(=O)c21 | > 100 |  | > 100 |  |  |  | > 100 | > 100 | > 100 |  | > 100 | > 100 | > 100 | > 100 | > 100 | > 100 |  |  | 
17 | CCOC(=O)c1cc2c([nH]1)c(O)cc1c2ccn1Cc1ccccc1 | 30.3 |  | 34.2 | 50.2 | 82.4 | 51.3 | 34.7 | 41.4 | 39.9 | 36.9 | 36.6 | 14.1 | 28.1 | 28.2 | 31 | 32.6 | 54.3 | 39.5 | 11.9
18 | O=C(NC12CC3CC(CC(F)(C3)C1)C2)c1ccccc1 | > 100 | > 100 |  | > 100 | > 100 |  | > 100 | > 100 | > 100 |  |  | > 100 | > 100 | > 100 |  | > 100 | > 100 | > 100 | 
19 | Cc1cccc(C(C)C)c1NC(=O)/C(Cc1c([N+](=O)[O-])cccc1[N+](=O)[O-])=N/NC(=O)CC#N | > 100 | > 100 |  | > 100 | > 100 | > 100 | > 100 | > 100 | > 100 | > 100 |  | > 100 |  | > 100 |  | > 100 | > 100 | > 100 | 
20 | OC1(c2ccc(Cl)cc2)C(N2CCCC2)c2ccccc2C2=NCCN21 (stereo not drawn) | > 100 |  | > 100 |  | 60.9 | > 100 | > 100 | > 100 | > 100 |  | > 100 | 93.8 | 92.7 | > 100 | 86.7 | > 100 | 52.7 | 57.6 | 41
21 | COc1cc(/C=C2/SC(c3ccccc3)N(c3ccccc3Cl)C2=O)cc(OC)c1OC (stereo not drawn) | > 100 | 32.3 |  |  | > 100 | > 100 | > 100 | > 100 | 43.4 | > 100 | 46.6 | 68.2 | 81.7 | > 100 | > 100 | > 100 |  | 63.4 | > 100
22 | CCOC(=O)c1c(NC(=O)c2cccs2)sc2c1CCC2 | > 100 |  | > 100 | 26.2 | > 100 | > 100 | > 100 | > 100 | > 100 | > 100 | > 100 | > 100 | > 100 | > 100 |  | > 100 | > 100 |  | > 100
23 | NC(=S)N1N=C2c3ccccc3CC[C@@H]2[C@@H]1c1ccccc1 | > 60.2 | 4.53 |  | 35.6 | > 83.8 | 49.5 | > 42.2 | 99.9 | 62.3 | 45.6 | 17.3 | 48 | 19 | > 100 |  | 50.5 | > 80.3 | 33.9 | 
24 | O=C1NC(=O)C(CCC(=O)c2ccc3ccccc3c2)C(=O)N1 | > 100 | 38.5 |  | > 100 | > 100 | > 100 | > 100 | > 100 | > 100 | > 100 | > 100 | > 100 | > 100 | > 100 |  | > 100 | > 100 | > 100 | 
25 | CC(=O)Oc1cc(Cl)c(C)c2c1[C@H]1CC[C@]3(C)[C@@H](OC(C)=O)CC[C@H]3[C@@H]1CC2 | > 100 | > 100 |  | > 100 | > 100 | > 100 | > 100 | > 100 | > 100 | > 100 | > 100 | > 100 | > 100 | > 100 | > 100 | > 100 | > 100 |  | > 100
26 | Nc1nc(I)nc2c1ncn2C1OC(COS(N)(=O)=O)C(O)C1O (stereo not drawn) | 0.201 | < 0.01 | 0.0423 | < 0.0136 | < 0.01 | 0.018 | 0.108 | 0.0189 | 0.0268 | < 0.0159 | 0.032 | 0.0416 | 0.0324 | < 0.013 | 0.0138 | 0.0297 | 0.0401 | 0.0458 | 
27 | Cc1cc(C)c2c(O)c(S(=O)(=O)c3ccc(Cl)cc3)c(=O)oc2c1 | > 100 |  | > 100 | > 100 | > 100 | > 100 | > 100 | > 100 | > 100 | > 100 | > 100 |  | > 100 | > 100 | > 100 | > 100 | > 100 | > 100 | > 100
28 | O=[N+]([O-])c1ccc2c(c1)S(=O)(=O)N1Cc3ccccc3CCN21 | > 100 | > 100 | > 100 | > 100 | > 100 | > 100 | > 100 | > 100 | > 100 | > 100 | > 100 | > 100 | > 100 | > 100 | > 100 | > 100 | > 100 |  | 

— PubChem BioAssay (NCI)
